Assay results: the METLIN SMRT retention time set (Domingo-Almenara et al. 2019)

Assay: gradient 5% acetonitrile 3 min, to 50% in 2 min, to 85% in 15 min, held 3 min, 100 µL/min
Details: column: Zorbax Extend-C18 2.1 x 50 mm; eluents: water / acetonitrile, 0.1% formic acid
Summary of the method: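 Data were gathered over 3 months by HPLC coupled to a quadrupole time-of-flight mass spectrometer, operated in positive and negative ionization mode. Mixtures of ~100 pure standards ran on a Zorbax Extend-C18 column (2.1 × 50 mm, 1.8 μm) at 100 μL/min, with water and acetonitrile each containing 0.1% formic acid and dead and dwell volumes of 40 μL and 900 μL. Retention time was read from adduct peaks picked by computer and checked manually.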

In the case of `CCOCCCNC(=O)N1CCN(Cc2nc3cc(C(=O)N(C)C)ccc3n2CC)CC1`, the RP-LC retention time is reported as 581 s.
Work on `O=C(CSc1ccncc1)Nc1ccc(OCc2nnc(-c3ccccc3)o2)cc1` yielded an RP-LC retention time of 884 s.
Compound `COCC(=O)N1CCCc2ccc(NC(=O)c3cc(C)on3)cc21` has an RP-LC retention time of 680 s.
For `CCc1ccc(NC(=O)CSc2nc(N3CCCCC3)nc3ccccc23)cc1`, the RP-LC retention time was 809 s.
With `O=C(CC1COc2ccccc2NC1=O)Nc1ccc(F)c(Cl)c1` (stereo unspecified) the RP-LC retention time was 788 s.
Compound `CCCN1C(=O)COc2ccc(-c3noc(COc4cccc(C)c4)n3)cc21` has an RP-LC retention time of 1170 s.
For `CCC(C)(C)NC(=O)C1CCCN1S(=O)(=O)c1cc2c(cc1C)NC(=O)CO2` (stereo unspecified), the RP-LC retention time was 745 s.
With `Cc1ccc(C)c(-c2cc3c(=O)n(Cc4nc(-c5ccc(Cl)cc5)no4)ncn3n2)c1` the RP-LC retention time was 1220 s.
`COc1cc(N2C=C(C#N)S(=O)(=O)c3c(F)cccc32)cc(OC)c1OC` showed an RP-LC retention time of 857 s.
Compound `CC1CCC(Nc2c(-c3cccc(F)c3)nc3ncccn23)CC1` (stereo unspecified) has an RP-LC retention time of 905 s.
In the case of `COCCNC(=O)c1ccccc1-c1ocnc1C(=O)OC(C)C`, the RP-LC retention time is reported as 676 s.
Compound `COCCCNc1c(-c2cccc(F)c2)nc2sc(C(=O)N3CCCC3)c(C)n12` has an RP-LC retention time of 824 s.
`CCN1CCCn2cc(S(=O)(=O)Nc3ccc(C)cc3C)cc2C1=O` gave an RP-LC retention time of 763 s.
Compound `CCc1ccc(Oc2cc(N3CCC(C(=O)NCCc4cccnc4)CC3)ncn2)cc1` has an RP-LC retention time of 657 s.
With `O=C(c1cn2cc(Cl)ccc2n1)N1CCN(c2ccc(Cl)cc2)CC1` the RP-LC retention time was 899 s.
In the case of `COC[C@@H]1CN(c2cnccn2)C[C@H]1C(=O)NCc1cc(C)nn1C`, the RP-LC retention time is reported as 563 s.
For `CCOc1nc2ccccc2nc1N1CCCC(C(=O)NCC2CCCO2)C1` (stereo unspecified), the RP-LC retention time was 934 s.
Compound `Cc1ccc(CNC(=O)NCCn2cnc3cc(C(=O)NC4CCCC4)ccc32)cc1` has an RP-LC retention time of 652 s.
In the case of `CCc1cccc(NC(=O)C2(C)CCCCC(=O)N2)c1` (stereo unspecified), the RP-LC retention time is reported as 753 s.
`Cc1cc(C)cc(NC(=O)CN2C(=O)C(C(=O)N3CCCC3)Sc3ccccc32)c1` (stereo unspecified) gave an RP-LC retention time of 1070 s.
`CCCCN1C(=O)C(CC(=O)N2CCCC2)Sc2ncccc21` (stereo unspecified) showed an RP-LC retention time of 755 s.
With `CCN(CC)C(=O)c1ccc2oc(CN3CCN(C(=O)NCc4ccco4)CC3)nc2c1` the RP-LC retention time was 626 s.
With `CC1CCc2nc3ncn(CC(=O)Nc4cccc(Br)c4)c(=O)c3cc2C1` (stereo unspecified) the RP-LC retention time was 854 s.
With `O=C(Cn1cnc(-c2noc(-c3ccc(F)cc3)n2)c1)NC1CCCCC1` the RP-LC retention time was 862 s.
With `Cc1cc(F)ccc1NC(=O)C1CCCN1S(=O)(=O)c1cc2c(cc1Cl)NC(=O)CO2` (stereo unspecified) the RP-LC retention time was 745 s.
`Cc1ccc2c(Nc3ccc(F)c(F)c3)c(C(=O)N3CCCC3)cnc2n1` gave an RP-LC retention time of 680 s.
For `CC1CCCN(C(=O)Cc2nnc3cc(-c4nc(C5CC5)no4)ccn23)C1` (stereo unspecified), the RP-LC retention time was 759 s.
`O=S(=O)(Nc1ccc(F)c(F)c1)c1ccc2nncn2c1` showed an RP-LC retention time of 694 s.
In the case of `CC(C(=O)NCCCN(C)c1ccccc1)n1c(=O)c(C(F)(F)F)nc2ccccc21` (stereo unspecified), the RP-LC retention time is reported as 881 s.
In the case of `CCN1CCN(C(=O)CN2c3ccc(Br)cc3-c3ccccc3S2(=O)=O)CC1`, the RP-LC retention time is reported as 670 s.
`COc1cc(NS(=O)(=O)c2ccc(-c3c(C)noc3C)cc2)cc(OC)c1OC` gave an RP-LC retention time of 856 s.
In the case of `CCOc1ccc(S(=O)(=O)N2CCc3c(c(-c4nnc(-c5ccc(F)cc5)o4)nn3C)C2)cc1`, the RP-LC retention time is reported as 1000 s.
Compound `c1cnn(-c2ccc(-c3noc(C4CCC4)n3)cn2)c1` has an RP-LC retention time of 1090 s.
With `Cc1ccccc1-c1noc(CSc2nc3cc4c(cc3c(=O)n2Cc2ccccc2)OCO4)n1` the RP-LC retention time was 1300 s.
In the case of `Cc1cc2c(c(=O)n(-c3ccccc3)c(=O)n2CC(=O)Nc2cccc(F)c2)n1C`, the RP-LC retention time is reported as 837 s.
With `Cc1ccsc1-c1nnc(CC(=O)N2CCN(Cc3ccc4c(c3)OCO4)CC2)o1` the RP-LC retention time was 640 s.
Compound `O=C(CCc1ccc2nc(-c3ccccc3)[nH]c2c1)N1CCCCCC1` has an RP-LC retention time of 642 s.
Work on `CS(=O)(=O)c1ccccc1C(=O)Nc1ccc2sccc2c1` yielded an RP-LC retention time of 757 s.
With `Cc1cc(C(=O)Nc2sc(C)c(C)c2C#N)on1` the RP-LC retention time was 786 s.
`CCCn1nc(CNC(=O)Cc2ccsc2)c2ccccc21` gave an RP-LC retention time of 847 s.
For `CC(C)(C)NC(=O)N1C[C@@H]2CN(S(=O)(=O)c3cccc(F)c3)C[C@H](C1)O2`, the RP-LC retention time was 765 s.
Compound `CN(C)C(=O)c1ccc2c(c1)N(CC(=O)NCCC1=CCCCC1)C(=O)C1CCCCN21` (stereo unspecified) has an RP-LC retention time of 830 s.
Work on `COCCCNc1c(-c2cccc(F)c2)nc2sc(C(N)=O)c(C)n12` yielded an RP-LC retention time of 741 s.
Compound `Cn1nc(-c2nnc(-c3ccc(F)cc3)o2)c2c1CCN(C(=O)Nc1ccccc1Cl)C2` has an RP-LC retention time of 892 s.
With `COc1ccc(-c2nc3ncccn3c2Nc2cc(C)ccc2C)cc1` the RP-LC retention time was 792 s.
For `Cc1nn2c(CNC(=O)Cc3ccsc3)c(-c3ccccc3)nc2s1`, the RP-LC retention time was 866 s.
Compound `CC1CCCN(S(=O)(=O)c2ccc(-c3nnc(C4CCC4)o3)o2)C1` (stereo unspecified) has an RP-LC retention time of 1010 s.
`Cc1cccc(CNC(=O)C2CCCN(c3nnc(C)c4c(C)n(-c5ccccc5)nc34)C2)c1` (stereo unspecified) showed an RP-LC retention time of 745 s.
`O=C(NCc1ccccc1)Nc1cnc2c(c1)CCC2` showed an RP-LC retention time of 557 s.
In the case of `O=C(CSc1nnc(NC(=O)c2ccccc2C(F)(F)F)s1)NC1CCCCC1`, the RP-LC retention time is reported as 781 s.
Work on `Cc1cn(C)c(CC(=O)Nc2ccc(Cl)cc2)c1C(=O)O` yielded an RP-LC retention time of 804 s.
With `Cc1noc(C)c1S(=O)(=O)N1CCC2(CC1)NCCc1c2[nH]c2ccccc12` the RP-LC retention time was 588 s.
Compound `COc1ccc(OC)c(NC(=O)N2CCN(c3ccc(=O)n(-c4ccc(C)c(C)c4)n3)CC2)c1` has an RP-LC retention time of 880 s.
In the case of `COc1ccc(-c2ncccc2CNS(=O)(=O)c2ccc(C)cc2C)cc1`, the RP-LC retention time is reported as 715 s.
In the case of `CCc1nnc(-c2ccc3ccn(CC(=O)N4CCN(c5ccccc5)CC4)c3c2)o1`, the RP-LC retention time is reported as 858 s.
In the case of `Cc1cccc(S(=O)(=O)N2CC=C(c3cn(C)c4ncccc34)CC2)c1`, the RP-LC retention time is reported as 898 s.
For `COc1ccc(OC)c(NS(=O)(=O)c2ccc3c(c2)C(=O)N(C)c2ncccc2O3)c1`, the RP-LC retention time was 872 s.
Work on `O=C(c1ccc(Br)o1)N1CCN(c2ccc(-c3noc(C4CC4)n3)cc2)CC1` yielded an RP-LC retention time of 1020 s.
Work on `O=C1CC(c2ccc(C(=O)O)cc2)c2scc(-c3ccccc3F)c2N1` (stereo unspecified) yielded an RP-LC retention time of 804 s.
`CCc1noc(NC(C)=O)c1-c1ccc(OC)c(S(=O)(=O)Nc2ccccc2)c1` showed an RP-LC retention time of 764 s.
Work on `Cc1nn(C)c(C)c1CCNC(=O)Nc1ccc(Br)cc1` yielded an RP-LC retention time of 674 s.
`COc1cc(C2C(C(=O)N3CCOCC3)=C(C)NC3=C2C(=O)CCC3)ccc1OC(C)=O` (stereo unspecified) gave an RP-LC retention time of 622 s.
`Cc1nnc(-c2cn(CC(=O)Nc3ccc(Br)cc3F)c3ccccc23)o1` showed an RP-LC retention time of 890 s.
Work on `COc1ccc(N2CC(c3nc(-c4ccccc4F)no3)CC2=O)c(OC)c1` (stereo unspecified) yielded an RP-LC retention time of 863 s.
For `O=C(NCCC1CCN(S(=O)(=O)c2ccccc2)CC1)Nc1ccc(F)cc1F`, the RP-LC retention time was 910 s.
For `CCc1cccc(NC(=O)c2sc(-c3cn(C)c4ncccc34)nc2C)c1`, the RP-LC retention time was 1040 s.
